Experimental data published in PubChem BioAssay (NCI).
Where “and” joins values, the source holds several entries; their conditions need not be identical. Equal values may be shown once.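 Compound exposure: 48 hours, 5 concentrations, 96-well plates. GI50 = concentration required for 50% inhibition of growth. The concentration for full growth arrest is given as TGI.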

Tests used:
Assay in all cases: DTP human tumour cell line panel, 48 h
[1] = system: LXFL 529 NSCLC
[2] = system: XF 498 CNS
[3] = system: DMS 273 small cell lung
[4] = system: SNB-78 CNS
[5] = system: M19-MEL melanoma
[6] = system: DLD-1 colon
[7] = system: HOP-18 NSCLC
[8] = system: DU-145 prostate
[9] = system: PC-3 prostate
[10] = system: HS 578T breast

Row | Structure (SMILES) | TGI [1] [µM] | TGI [2] [µM] | TGI [3] [µM] | TGI [4] [µM] | TGI [5] [µM] | TGI [6] [µM] | TGI [7] [µM] | GI50 [1] [µM] | GI50 [2] [µM] | GI50 [3] [µM] | GI50 [4] [µM] | GI50 [5] [µM] | GI50 [6] [µM] | GI50 [7] [µM] | GI50 [8] [µM] | TGI [8] | GI50 [9] [µM] | TGI [9] [µM] | GI50 [10] [µM] | TGI [10] [µM]
1 | CCOC(=O)C(Cc1ccccc1)NC(=O)OC(C)(C)C (stereo not given) | > 100 | > 100 | > 100 | > 100 | > 100 | > 100 |  |  |  |  |  |  |  |  |  |  |  |  |  | 
2 | COc1ccc2nc(NC(=O)C(=O)C(C(=O)c3ccccc3-c3ccccc3)C3OC(=O)c4ccccc43)sc2c1 (stereo not given) | 26.3 | 45.7 |  | > 100 | 31 | 40.9 |  |  |  |  |  |  |  |  |  |  |  |  |  | 
3 | COc1cc(/C=C/c2ccc(OC(C)=O)cc2)cc(OC)c1OC | > 100 |  | > 100 | > 100 | > 100 | > 100 | > 100 |  |  |  |  |  |  |  |  |  |  |  |  | 
4 | COc1cc([C@@H]2c3cc4c(cc3[C@@H](NCc3ccccc3)C3COC(=O)[C@@H]32)OCO4)cc(OC)c1O (stereo not given in full) | > 100 | 41 | 36.7 | > 100 | > 100 | > 100 |  |  |  |  |  |  |  |  |  |  |  |  |  | 
5 | N#CCN1CCOCCOCCN(CC#N)CCOCCOCC1 | > 100 |  |  | > 100 | > 100 | > 100 | > 100 |  |  |  |  |  |  |  |  |  |  |  |  | 
6 | Cc1c(C(=O)/C=C/c2ccccc2Cl)[n+](=O)c2ccccc2n1[O-] | 20 |  | 27.9 | 44.3 | 29.1 | 19.8 | 28.2 |  |  |  |  |  |  |  |  |  |  |  |  | 
7 | O=C(O)CCCCCO | > 100 | > 100 | > 100 | > 100 | > 100 | > 100 | > 100 |  |  |  |  |  |  |  |  |  |  |  |  | 
8 | O=C(/C=C/c1ccccc1O)c1cccnc1 | > 100 | > 100 | > 100 | > 100 | > 100 | > 100 | > 100 |  |  |  |  |  |  |  |  |  |  |  |  | 
9 | Cc1ccc(NC(=O)CC/C(CC(=O)c2ccc(F)cc2)=N\NC(=O)C(=O)NN)cc1C | > 100 |  | > 100 | > 100 | > 100 | > 100 | > 100 |  |  |  |  |  |  |  |  |  |  |  |  | 
10 | CCC[CH2][Sn]([CH2]CCC)([O]C(=O)c1cc(OC)c(OC)cc1OC)[O]C(=O)c1cc(OC)c(OC)cc1OC | 1.22 | 2.16 | 3.37 | 2.41 | 2.36 | 2.92 |  | 0.346 | 0.767 | 1.55 | 0.68 | 1.03 | 1.51 |  |  |  |  |  |  | 
11 | Cc1ccccc1NC(=O)C1C(=O)N(c2ccccc2C)C(=O)/C1=N\N (stereo not given) | > 100 |  |  | > 100 | > 100 | > 100 | > 100 |  |  |  |  |  |  |  |  |  |  |  |  | 
12 | COc1cc2ccnc(-c3c4ccccc4c(N)c4c(OC)c(OC)ccc34)c2cc1OC | 15.7 | 6.75 | 3.47 | 18.3 | 13.7 | 16.6 |  |  |  |  |  |  |  |  |  |  |  |  |  | 
13 | Cc1ccc(S(=O)(=O)SCc2ccccc2CSS(=O)(=O)c2ccc(C)cc2)cc1 | 32.6 | 47.4 | 44.2 | > 100 | 60.3 | 30 | > 100 |  |  |  |  |  |  |  |  |  |  |  |  | 
14 | CCC[CH2][Ge]([CH2]CCC)([CH2]CCC)[O]C(=O)C(O)c1ccccc1 (stereo not given) | 21.4 | 4.92 | 11.9 | 38.8 | 22.3 | 21.9 | 51 | 1.29 |  | 1.2 | 3.04 | 8.65 | 1.99 | 18.5 |  |  |  |  |  | 
15 | CCOC(=O)N1N=NC2C3OC(C[C@@]3(C#N)OC(C)=O)[C@H]21 (stereo not given in full) | > 100 | > 100 | > 100 | > 100 | > 100 | > 100 | > 100 |  |  |  |  |  |  |  |  |  |  |  |  | 
16 | Nc1ccc2c(c1)CC1c3ccccc3C(C2)c2ccccc21 | > 100 |  | > 100 | > 100 | > 100 | > 100 | > 100 |  |  |  |  |  |  |  |  |  |  |  |  | 
17 | C/C(=N\NC(=O)c1ccccc1O)c1cccc(/C(C)=N/NC(=O)c2ccccc2O)n1 | 53.1 | 46.7 | > 100 | > 100 | > 74 | > 100 | 39.4 |  |  | 20.4 | 46.2 | 11.5 | 2.62 | 1.84 | 10.7 | > 100 µM and 31.3 µM | 0.626 | > 100 | > 100 | > 100
18 | Nc1c(C(=O)c2cccc(C#CCN3CCOCC3)c2)cnn1-c1ccc(F)cc1 |  |  |  |  |  |  |  |  |  |  |  |  |  |  | > 25 | > 25 µM | 15.4 | > 25 | > 25 | > 25
19 | CC1=C(C(=O)CC(=O)C(=O)Nc2ccccc2)Sc2ccccc2N1 | > 100 | > 100 |  | > 100 | > 100 | > 100 | > 100 |  |  |  |  |  |  |  |  |  |  |  |  | 
